Source: the NIST ThermoML archive (doi:10.1021/je800404f)
Numbers after ± are expanded uncertainties.

Test: refractive index (Na D-line) (dimensionless)
Settings: 295.1 K; 101.33 kPa; Liquid; Standard Abbe refractometry

refractive index | SMILES
1.3441 ± 0.0024 | CC#N [acetonitrile]
1.4175 ± 0.0024 | CCCCCCC(=O)O [heptanoic acid]
1.4322 ± 0.0024 | CCCCCCCCCO [nonan-1-ol]
1.333 ± 0.0024 | O [water]
